# Measurements from patent publication US20240024273A1, “TOPICAL ADMINISTRATION OF 2-(DIETHYLAMINO)ETHYL 2-(4-ISOBUTYLPHENYL)PROPRIONATE FOR TREATMENT OF DISEASES” (TECHFIELDS PHARMA CO., LTD., priority 2020, published 2024).
# Where two headings read alike, the source gives them in different places.
# Tests used:
# LPS induced fever = LPS induced fever model; assay type: in vivo, SD Rats; conditions: 30 and 90 mg/kg; 4 and 6 hour time points
# [1] = 28-day GLP repeated dermal dose toxicity and toxicokinetics study; design: species or system Rats; conditions: rat, in vivo; for Cmax / AUC(0-t): topical, 100 mg/kg/day, Day 28; for AUC(0-t): read-out: AUC0-24 h
# [2] = as above; design: species or system Beagle dogs; conditions: beagle, dog, in vivo, topical or ocular, 28-day dermal
# [3] = test system: Mild to Moderate Osteoarthritis of the Knee; assay: Phase 2 study: subject's and physician's global assessment of response to therapy; assay type: in vivo, human
# Source text: 3.9.3. Exploratory Efficacy Endpoints: • 1. Subject's global assessment of disease status of the target knee at 2, 4, 8, and 12 weeks of treatment; • 2. Investigator's global assessment of disease status of the target knee at 2, 4, 8, and 12 weeks of treatment; • 3. Subject's global assessment of response to therapy of the target knee at 2, 4, 8, and 12 weeks of treatment; • 4. Investigator's global assessment of response to therapy of the target knee at 2, 4, 8, and 12 weeks of treatment; • 5. Change from Baseline over time in VAS pain scores for the target knee from Daily Diary data; • 6. Amount of rescue medication (acetaminophen) consumed per day for target knee pain.
# Data for the exploratory efficacy endpoints will be summarized using descriptive statistics.
# [4] = test system: Subjects with Mild to Moderate Osteoarthritis of the Knee; assay: Phase 2 study: safety; assay type: in vivo, human
# Source text: Safety assessments will be performed at each visit and will include assessment of AEs, vital signs (blood pressure, pulse rate, and oral temperature), clinical laboratories, physical examination, skin irritation, and electrocardiograms (ECGs) as indicated in the study flow chart, Table 14.
# Safety assessments will include AEs, vital signs (blood pressures, pulse rate, and oral temperature), clinical laboratories, physical examination, skin irritation, and ECGs at various time points during the study as indicated in the study flow chart.
# Adverse events of interest include: local skin reactions around the treated knee(s), upper stomach pain, GI bleeding, serious cardiovascular side effects (e.g., thrombotic events, myocardial infarction, or stroke), jaundice, elevated liver function tests, and nausea.
# Safety analyses will be conducted on the SAS. Safety parameters will be listed and summarized using standard descriptive statistics, as appropriate. No formal statistical analyses are planned.
# [5] = pig, in vivo, topical or ocular, 9 mg/kg
smiles,measurement,setting,value
CCN(CC)CCOC(=O)C(C)c1ccc(CC(C)C)cc1 (stereo not drawn) [2-(diethylamino)ethyl 2-(4-isobutylphenyl)propionate],LPS induced fever,LPS induced fever,LPS induced fever was attenuated by middle (30 mg/kg) and high
same,NOAEL at 28 days,"[1]; both sexes, topical or ocular, 28-day dermal, male and female, read-out: systemic NOAEL",100 mg/kg/day
same,Cmax,"[1]; female, females",46800 ng/mL
same,AUC(0-t),"[1]; female, females",422 µg·h/mL
same,Cmax,"[1]; male, males",47400 ng/mL
same,AUC(0-t),"[1]; male, males",165 µg·h/mL
same,NOAEL at 28 days,"[1]; ulcers at application site at ≥100 mg/kg/day, read-out: local NOAEL",25 mg/kg/day
same,NOAEL at 28 days,[2]; read-out: NOAEL (not attained; ulcers at application site at lowest dose),< 12.4 mg/kg/day
same,NOAEL at 28 days,[2]; read-out: systemic NOAEL (tissues other than the dermal application site),24.8 mg/kg/day
same,Physician's global assessment of response to therapy: Excellent,[3]; 8.75 mg/knee (BID),11.1%
same,Physician's global assessment of response to therapy: fair,[3]; 8.75 mg/knee (BID),36.5%
same,Physician's global assessment of response to therapy: good,[3]; 8.75 mg/knee (BID),38.1%
same,Physician's global assessment of response to therapy: none,[3]; 8.75 mg/knee (BID),7.9%
same,Physician's global assessment of response to therapy: poor,[3]; 8.75 mg/knee (BID),6.3%
same,Physician's global assessment of response to therapy: total percentage of excellent and good,[3]; 8.75 mg/knee (BID),49.2%
same,Subject's global assessment of response to therapy: Excellent,[3]; 8.75 mg/knee (BID),7.8%
same,Subject's global assessment of response to therapy: fair,[3]; 8.75 mg/knee (BID),29.7%
same,Subject's global assessment of response to therapy: good,[3]; 8.75 mg/knee (BID),43.8%
same,Subject's global assessment of response to therapy: none,[3]; 8.75 mg/knee (BID),9.4%
same,Subject's global assessment of response to therapy: poor,[3]; 8.75 mg/knee (BID),9.4%
same,Subject's global assessment of response to therapy: total percentage of excellent and good,[3]; 8.75 mg/knee (BID),51.6%
same,Physician's global assessment of response to therapy: Excellent,[3]; 17.5 mg/knee (BID),23.2%
same,Physician's global assessment of response to therapy: fair,[3]; 17.5 mg/knee (BID),18.8%
same,Physician's global assessment of response to therapy: good,[3]; 17.5 mg/knee (BID),43.5%
same,Physician's global assessment of response to therapy: none,[3]; 17.5 mg/knee (BID),5.8%
same,Physician's global assessment of response to therapy: poor,[3]; 17.5 mg/knee (BID),8.7%
same,Physician's global assessment of response to therapy: total percentage of excellent and good,[3]; 17.5 mg/knee (BID),66.7%
same,Subject's global assessment of response to therapy: Excellent,[3]; 17.5 mg/knee (BID),20.3%
same,Subject's global assessment of response to therapy: fair,[3]; 17.5 mg/knee (BID),17.2%
same,Subject's global assessment of response to therapy: good,[3]; 17.5 mg/knee (BID),50.0%
same,Subject's global assessment of response to therapy: none,[3]; 17.5 mg/knee (BID),7.8%
same,Subject's global assessment of response to therapy: poor,[3]; 17.5 mg/knee (BID),4.7%
same,Subject's global assessment of response to therapy: total percentage of excellent and good,[3]; 17.5 mg/knee (BID),70.3%
same,Physician's global assessment of response to therapy: Excellent,[3]; 35 mg/knee (BID),18.8%
same,Physician's global assessment of response to therapy: fair,[3]; 35 mg/knee (BID),17.2%
same,Physician's global assessment of response to therapy: good,[3]; 35 mg/knee (BID),42.2%
same,Physician's global assessment of response to therapy: none,[3]; 35 mg/knee (BID),7.8%
same,Physician's global assessment of response to therapy: poor,[3]; 35 mg/knee (BID),14.1%
same,Physician's global assessment of response to therapy: total percentage of excellent and good,[3]; 35 mg/knee (BID),60.9%
same,Subject's global assessment of response to therapy: Excellent,[3]; 35 mg/knee (BID),18.0%
same,Subject's global assessment of response to therapy: fair,[3]; 35 mg/knee (BID),18.3%
same,Subject's global assessment of response to therapy: good,[3]; 35 mg/knee (BID),49.2%
same,Subject's global assessment of response to therapy: none,[3]; 35 mg/knee (BID),9.8%
same,Subject's global assessment of response to therapy: poor,[3]; 35 mg/knee (BID),4.9%
same,Subject's global assessment of response to therapy: total percentage of excellent and good,[3]; 35 mg/knee (BID),67.2%
same,safety and tolerability,"[4]; all three doses (8.75, 17.5, 35 mg/knee BID)",appeared to be safe and were generally well tolerated
same,gastrointestinal disorder incidences (very mild),[4]; whole study,12 incidences
same,skin irritation incidences,"[4]; whole study, total",8 incidences
same,cartilage AUClast,[5],23.91 µg·h/mL
same,muscle AUClast,[5],35.89 µg·h/mL
same,plasma AUClast,[5],1.516 µg·h/mL
